The text below walks through data of publication PMC5614969, “High-Affinity Functional Fluorescent Ligands for Human β-Adrenoceptors” (Scientific Reports, 2017).

The target of data set [1] is T1, β2AR (Homo sapiens, UniProt P07550). As to the kind of experiment: cAMP FRET sensor (TEpacVV) agonist assay in HEK 293 cells. Type of data set: cell-based. As to conditions: HEK 293 expressing 3′,5′-cAMP FRET sensor, 30 min incubation, room temperature; for EC50: read-out: EC50 (mean ± SD). As to the method:
Upon cAMP binding, the sensor undergoes a conformational change resulting in a decrease of the FRET efficiency between two fluorescent proteins: mTurquoise - a version of cyan fluorescent protein (CFP) as the donor, and yellow fluorescent protein (YFP) as the acceptor (Fig. 3a).
The intracellular cyclic adenosine monophosphate (cAMP) levels were determined with HEK 293 cells expressing a 3′,5′-cAMP FRET sensor. The cells were a generous gift from Ruud Hovius from École poly-technique fédérale de Lausanne (EPFL). The cAMP production induces a conformational switch in ^TEpac^VV and causes a decrease in FRET efficiency, i.e. a decreased energy transfer between the two fluorescent proteins (donor mTurquoise and acceptor YFP)[32].
(§1) The culture was maintained by subculturing the cells every 4 to 5 days using the standard trypsinization procedure. Before measurements, cells were trypsinated and transferred in a 96-well glass bottom plate (MatTek Corporation; Cat. No. P96GC-1.5–5-F) to contain 10,000–30,000 cells per well in 200 µL of DMEM media. After 24 h incubation in 5% CO2 at 37 °C, the cells were washed with HBSS pH 7.2 (200 µL), and the wells were filled with 200 µL HBSS. The DMSO stock solutions of the fluorescent probes were diluted 5,000 times in HBSS and used in experiments. […] The fluorescent ligand solutions of different concentrations in HBSS were premixed with the isoprenaline solution. 50 µL of a final solution was added to each well and the measurement was started upon addition and continued for 1 h in 10 min intervals between the readouts (inclusive).
(§2) The ligands were added using an automated pipette to initiate the sensor response. FRET readout from the cAMP sensor was performed on a multiwell plate reader Spark 20 M (Tecan) at room temperature (25 °C). Fluorescence readout amplitudes were calculated from time series for different ligand concentrations, following background subtraction (media only). […] Data were derived from 3 independent experiments and each independent experiment was performed in triplicate.
(§3) Sensor response R(CFP/FRET) was calculated using (1):1 R(CFP/FRET)=(FimTurquoise−FbkgmTurquoise)/(FiFRET−FbkgFRET) where F i ^mTurquoise – mTurquoise fluorescence intensity in the wells with cells; F bkg ^mTurquoise - mTurquoise fluorescence intensity in the control wells without cells; F i ^FRET – FRET signal intensity in the wells with cells; F bkg ^FRET – FRET signal intensity in the control wells without cells. For every result, R(CFP/FRET) ratio was normalized to the R(CFP/FRET) response of DMSO sample.

Data set [2] in a line: Fluorescence increase upon addition of SDS to probe solutions. The class given is physicochemical. As to conditions: addition of 0.1% SDS to ligand in PBS pH 7.4 with 1 mg/ml BSA; mean ± SD, n=3. As to the method:
Fluorescence spectra of 1 µM solution of fluorescent dyes and ligands in PBS pH 7.4, PBS pH 7.4 + 1 mg/ml BSA (Sigma) and with or without 0.1% SDS (Acros Organics) were recorded on a multiwell plate reader Spark 20 M (Tecan) in half-area black 96-well plates (Greiner Bio-One, cat. 675076) at room temperature (25 °C) after 2 h incubation. Fluorescence emission was recorded from 600 nm to 800 nm with excitation at 580 nm. The emission bandwidth for all measurements was set to 5 nm. The spectra were averaged from 3 individual experiments. Ratios F(BSA+SDS)/F(BSA) of fluorescence signals at 635 nm for 610CP, 645 nm for BODIPY 630/650-X and 655 nm for KK114 conjugates were calculated. The obtained results are summarized (Table 1 and Supplementary Fig. 7).

For data set [3], the target named is T2, β2AR-YFP fusion protein (Homo sapiens, UniProt P07550).
T2 construct: host or cells: U2OS
Description: Confocal imaging of living U2OS cells expressing β2AR-YFP (staining, internalization, competitive displacement, no-wash). Type of data set: cell-based. As to conditions: for Receptor internalization / Staining performance: U2OS cells expressing β2AR-YFP; for Staining performance: 610CP ligands at 1.9 µM (19) and 2.5 µM (16). As to the method: U2OS cells (ATCC) were cultured in high-glucose DMEM (Dulbecco’s Modified Eagle medium, Thermo Fisher Scientific) supplemented with GlutaMAX-1 (Thermo Fisher Scientific) and 10% fetal bovine serum (FBS) (Thermo Fisher Scientific) in a humidified 5% CO2 incubator at 37 °C. CAPAN-1 cells (ATCC) were cultured in McCoy’s 5a Medium Modified supplemented with 10% fetal bovine serum (FBS) (Thermo Fisher Scientific) in a humidified 5% CO2 atmosphere at 37 °C. Cells were split every 3–5 days or at confluence. Cells were seeded in glass bottom 12-well plates (MatTek Corporation). […] We used 200,000 cells per well, 3 µg plasmid DNA and 3 µl of Lipofectamine 2000.
We performed imaging 48–72 h after transfection. Staining of the transfected cell was performed in Hanks’ balanced salt solution (HBSS, Lonza) without Phenol Red for 30–40 min at room temperature (to minimize internalization). Samples were washed two times with HBSS, and cells were imaged in DMEM (Thermo Fisher Scientific) supplemented with GlutaMAX-1 (Thermo Fisher Scientific) and 10% fetal bovine serum (FBS). For all staining experiments with cells, stock solutions of dyes in DMSO were used, and final DMSO content was < 0.5%. Imaging was performed on Leica SP8 (Leica Microsystems) or Abberior STED (Abberior Instruments GmbH) microscopes.
Competitive displacement experiment was performed in living U2OS cells expressing β2AR-YFP fusion protein.
Confocal imaging was performed on a Leica SP8 (Leica Microsystems, Mannheim, Germany) inverted confocal microscope equipped with an HC PL APO CS2 63x/1.40 Oil objective. Images were acquired using a 700 Hz bidirectional scanner, pixel size of 70 nm × 70 nm, pinhole of 95.6 µm diameter(1 AU) and frame averaging of 2.

Data set [4] addresses T1, β2AR. As to the kind of experiment: Staining and competitive binding in CAPAN-1 cells at endogenous β2AR expression. Type of data set: cell-based. As to conditions: 100 nM probe (5 nM ab118171) with 10 µM BI-167107 or carazolol. As to the method: To study the selectivity of β2AR staining at the endogenous expression levels, which are much lower compared to those in transiently β2AR expressing U2OS cells, we tested the performance of BI-167107 probes in pancreatic CAPAN-1 cells (Fig. 7c–f). […] Low density of β2AR in the plasma membrane of CAPAN-1 cells allowed us to measure of the lateral resolution in the STED images. When the cells were incubated with 100 nM BI-PEG-KK114 (18) ligand, we observed two-fold improvement in the resolution resulting in apparent structures of ~100 nm (Fig. 7d; Supplementary Table 4).
For staining of CAPAN-1 cells, fluorescent probes or mixtures of a probe and a competitor were incubated in McCoy’s 5a Medium Modified supplemented with 10% fetal bovine serum (FBS) for 30–40 min at room temperature. Afterwards, the samples were washed two times with HBSS, and cells were imaged in DMEM (Thermo Fisher Scientific) supplemented with GlutaMAX-1 (Thermo Fisher Scientific) and 10% fetal bovine serum (FBS). Imaging performed on Leica SP8 (Leica Microsystems) or Abberior STED (Abberior Instruments GmbH) microscopes.

For data set [5], the target named is T2, β2AR-YFP fusion protein. Description: Confocal imaging of living U2OS cells expressing β2AR-YFP (staining, internalization, competitive displacement, no-wash). Type of data set: cell-based. As to conditions: 90 min, 100 nM carazolol-KK114 (24), 5 nM ab118171, no washing.
Data set [6] can be described thus: pH dependence of ligand fluorescence. Type of data set: physicochemical. As to the method: pH dependence of βAR ligands fluorescence were recorded on a multiwell plate reader Spark 20 M (Tecan) in 96-well glass bottom plates (MatTek Corporation; Cat. No. PBK96G-1.5-5-F) in PBS solutions (pH 4.7–8.0) at room temperature (25 °C). The 100x stock solutions of ligands were prepared in DMSO.

The target of data set [7] is T1, β2AR. As to the kind of experiment: cAMP FRET sensor assay, competitive displacement of isoprenaline by antagonists in HEK293 cells. Type of data set: cell-based. As to the method: as §1, with “experiments. In the antagonist inhibition experiment, we used β1 and β2 adrenoceptor agonist isoprenaline (abcr GmbH) as a positive control causing cAMP elevation.” for “experiments.”
as §2, §3
K i ^app were calculated using the Cheng-Prusoff equation (2):2 Kiapp=IC50/[A]/EC50+1 where [A] – concentration of the isoprenaline; IC50 – fitted half maximal inhibitory concentration of labeled antagonist; EC50 – fitted half maximal response concentration of isoprenaline.

Another data set deals with β1- and β2-adrenoceptors. Also noted: method as in PMID 19875286. As to conditions: racemic BI-167107; cited from earlier work.
Where [8] appears, read: U2OS β2AR-YFP, 40 min, room temperature, washed.

Several values for one entry are separate records, joined by “and”; a condition that tells them apart may be missing. Equal values may be shown once. Entries after “also recorded” stand apart in the source; their conditions may differ.

T2 sequence (P07550 whole entry, the tested form may be a part): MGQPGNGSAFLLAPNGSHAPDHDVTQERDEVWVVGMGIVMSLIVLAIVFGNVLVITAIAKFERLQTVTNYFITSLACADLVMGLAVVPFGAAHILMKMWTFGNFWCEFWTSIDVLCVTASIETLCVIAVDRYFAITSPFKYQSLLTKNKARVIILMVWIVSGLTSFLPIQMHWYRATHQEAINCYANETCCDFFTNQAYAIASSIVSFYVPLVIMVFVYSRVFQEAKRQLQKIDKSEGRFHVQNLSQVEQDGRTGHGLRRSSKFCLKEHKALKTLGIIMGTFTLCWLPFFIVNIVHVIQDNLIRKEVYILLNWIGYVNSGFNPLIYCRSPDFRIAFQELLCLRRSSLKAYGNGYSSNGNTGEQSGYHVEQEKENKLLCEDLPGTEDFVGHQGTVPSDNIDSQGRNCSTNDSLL
T1 sequence (P07550 whole entry): as the sequence (P07550 whole entry, the tested form may be a part) above

With `Cc1c(CCC(=O)NCCCCNC(=O)c2ccc(C(=O)[O-])c(C3=C4C=CC(=[N+](C)C)C=C4C(C)(C)c4cc(N(C)C)ccc43)c2)cccc1CC(C)(C)NCC(O)c1ccc(O)c2c1OCC(=O)N2` (stereo not drawn) [BI-4C-610CP (16)], at β2AR [1], the “EC50 (mean ± SD, nM)” value is on record as “low nanomolar” and the EC50 (usually the midpoint of the concentration-response curve) stood at 7.3 ± 1.4 nM. In addition, the “Fluorescence increase (F BSA+SDS / F BSA)” value in data set [2] came out at 1.5±0.4. Further, at β2AR-YFP fusion protein [3], the Receptor internalization entry is given as “Yes” and the Staining performance entry is reported as “satisfactory images; also recorded: Medium”.
With `CC(C)(CCNC(=O)CCOCCOCCNC(=O)COc1ccc(/C=C/C2=[N+]3C(=Cc4ccc(-c5cccs5)n4[B-]3(F)F)C=C2)cc1)NC[C@H](O)COc1cccc2[nH]c3ccccc3c12` [ab118171, reference compound], the “competitive binding with excess unlabeled ligand” value on β2AR [4] is recorded as “not possible to achieve full displacement”. The no-wash imaging staining result on β2AR-YFP fusion protein [5] is “strong off-target staining”. The “Fluorescence increase (F BSA+SDS / F BSA)” value in data set [2] was 8.2±3.9. Also, the fluorescence reduction entry in data set [6] (pH 7.0 compared to pH 4.7) is “almost two-fold”. The half-maximal inhibitory concentration (IC50) (in general, the concentration needed to halve the response being measured) on β2AR [7] (displacement of 17 nM isoprenaline, readout immediately after addition of ligands (0 min), read-out: IC50 (mean ± SD)) was 74.7 ± 36.3 nM. Also, the Ki at β2AR [7] (read-out: Ki app (mean ± SD)) turned out to be 4.8 ± 3.6 nM. Further, at β2AR-YFP fusion protein [3], the Receptor internalization result was “Weak” and the Staining performance result is “Strong”. Moreover, the “confocal staining at 5 nM” value on β2AR-YFP fusion protein [3] (U2OS β2AR-YFP, 5 nM, 40 min, room temperature, washed) was “specific membrane localized fluorescence”. Further, on β2AR-YFP fusion protein [3] (setting [8]), the “confocal staining at 100 nM” value is given as “non-specific dotted background” and the “confocal staining at 250 nM” value was “non-specific dotted background”.
On to `Cc1c(CCC(=O)NCCOCCOCCNC(=O)CCCCCNC(=O)COc2ccc(/C=C/C3=[N+]4C(=Cc5ccc(-c6cccs6)n5[B-]4(F)F)C=C3)cc2)cccc1CC(C)(C)NCC(O)c1ccc(O)c2c1OCC(=O)N2` (stereo not drawn) [BI-PEG-BDY630 (17)], for which the “competitive binding with excess unlabeled ligand” value on β2AR [4] is recorded as “strong off-target staining”. In addition, the EC50 at β2AR [1] was 0.2 nM and 0.18 nM. Moreover, the “Fluorescence increase (F BSA+SDS / F BSA)” value in data set [2] is on record as 10.5±1.7. The fluorescence decrease entry in data set [6] (at pH 4.7 and 8.0 versus pH 6.0–7.0) is “about 40%”. On β2AR-YFP fusion protein [3], the Receptor internalization entry was “Yes” and the Staining performance entry was “Strong”. For the same compound, on β2AR-YFP fusion protein [3] (U2OS β2AR-YFP, 100 nM probe (5 nM ab118171) with 10 µM unlabeled BI-167107 or carazolol, 30 min), the Competitive displacement entry was “Low background fluorescence”. Besides, at β2AR-YFP fusion protein [3] (setting [8]), the “confocal staining at 100 nM” value is reported as “labelled the cells efficiently” and the “confocal staining at 250 nM” value was “unspecific fluorescence”.
On to `Cc1c(CCC(=O)NCCOCCOCCNC(=O)c2ccc(C(=O)[O-])c(C3=C4C=CC(=[N+](C)C)C=C4C(C)(C)c4cc(N(C)C)ccc43)c2)cccc1CC(C)(C)NCC(O)c1ccc(O)c2c1OCC(=O)N2` (stereo not drawn) [BI-PEG-610CP (19)], for which, at β2AR [1], the “EC50 (mean ± SD, nM)” value was “low nanomolar”; the EC50 is 0.6 nM and 0.62 nM. Further, the “Fluorescence increase (F BSA+SDS / F BSA)” value in data set [2] stood at 1.2±0.3. Moreover, on β2AR-YFP fusion protein [3], the Staining performance entry is reported as “None”.
In the case of `Cc1ccccc1CC(C)(C)NCC(O)c1ccc(O)c2c1OCC(=O)N2` (stereo not drawn) [BI-167107], the “agonist classification at β-adrenoceptors” value in the data set on β1- and β2-adrenoceptors was “full agonist”.
